Source: ChEMBL document CHEMBL5154804, “Species-Selective Targeting of Fungal Hsp90: Design, Synthesis, and Evaluation of Novel 4,5-Diarylisoxazole Derivatives for the Combination Treatment of Azole-Resistant Candidiasis” (J Med Chem, 2022)
The source made the active and inactive calls. The calls are words filed in the database; no cut-off is given here.

Legend:
[1] = molecular target: Heat shock protein HSP90 (Homo sapiens, UniProt P07900+P08238); assay: Binding affinity to human Hsp90 expressed in Escherichia coli by SPR assay
[2] = molecular target: CYP2C9 (Homo sapiens, UniProt P11712); assay: Inhibition of CYP2C9 in human liver microsome at 10 uM using diclofenac as substrate incubated for 10 mins in presence of NADPH cofactor and fluconazole by LC-MS/MS analysis; type: ADME; conditions: liver microsomes, probe diclofenac
CYP2C9, sequence (P11712 whole entry): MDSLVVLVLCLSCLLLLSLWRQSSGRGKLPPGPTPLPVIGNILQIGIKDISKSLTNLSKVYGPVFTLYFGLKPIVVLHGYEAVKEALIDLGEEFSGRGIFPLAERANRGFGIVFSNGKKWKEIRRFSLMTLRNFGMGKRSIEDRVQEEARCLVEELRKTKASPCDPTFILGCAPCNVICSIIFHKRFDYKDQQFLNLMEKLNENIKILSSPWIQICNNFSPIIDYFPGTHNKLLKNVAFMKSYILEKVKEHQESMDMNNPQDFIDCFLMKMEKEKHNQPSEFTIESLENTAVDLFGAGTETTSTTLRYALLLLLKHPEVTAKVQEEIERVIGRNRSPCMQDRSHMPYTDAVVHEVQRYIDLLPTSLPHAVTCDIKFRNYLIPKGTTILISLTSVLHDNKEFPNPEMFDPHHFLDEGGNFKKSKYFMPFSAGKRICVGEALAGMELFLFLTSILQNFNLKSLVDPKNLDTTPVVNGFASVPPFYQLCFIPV

[3] = AUC (0 to t) in Sprague-Dawley rat at 10 mg/kg, iv measured upto 24 hrs by LC/MS/MS analysis; type: ADME, organism-based; set-up: time < 24 hrs, dose 10 mg/kg, route iv; conditions: in vivo
[4] = Cmax in Sprague-Dawley rat at 10 mg/kg, iv measured up to 24 hrs by LC/MS/MS analysis; type: ADME, organism-based; set-up: dose 10 mg/kg, time < 24 hrs, route iv; conditions: in vivo
[5] = Metabolic stability in rat liver microsomes assessed as intrinsic clearance in presence of NADPH cofactor under shaking condition for 10 mins measured after 5 to 60 mins by LC-MS/MS analysis; type: ADME, Microsome; conditions: time 15-70 min
[6] = molecular target: CYP2D6 (Homo sapiens, UniProt P10635); assay: Inhibition of CYPD6 in human liver microsome at 10 uM using dextromethorphan as substrate incubated for 10 mins in presence of NADPH cofactor and fluconazole by LC-MS/MS analysis; type: ADME; conditions: liver microsomes, probe dextromethorphan
CYP2D6, sequence (P10635 whole entry): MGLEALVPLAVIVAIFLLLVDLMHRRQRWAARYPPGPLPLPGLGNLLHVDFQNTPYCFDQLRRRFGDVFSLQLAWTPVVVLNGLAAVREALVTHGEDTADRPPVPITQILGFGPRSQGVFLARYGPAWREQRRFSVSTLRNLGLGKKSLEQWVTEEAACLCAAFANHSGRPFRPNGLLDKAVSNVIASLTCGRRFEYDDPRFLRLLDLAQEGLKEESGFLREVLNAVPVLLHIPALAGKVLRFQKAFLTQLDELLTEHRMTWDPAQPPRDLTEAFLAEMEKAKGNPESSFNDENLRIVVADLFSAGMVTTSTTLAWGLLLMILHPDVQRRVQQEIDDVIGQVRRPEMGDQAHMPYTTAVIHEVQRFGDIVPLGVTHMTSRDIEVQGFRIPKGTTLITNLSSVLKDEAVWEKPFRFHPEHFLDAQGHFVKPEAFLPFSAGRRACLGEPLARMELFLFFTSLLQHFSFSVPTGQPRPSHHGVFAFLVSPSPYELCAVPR

[7] = Metabolic stability in rat liver microsomes assessed as half life in presence of NADPH cofactor under shaking condition for 10 mins measured after 5 to 60 mins by LC-MS/MS analysis; type: ADME, Microsome; conditions: time 15-70 min
[8] = molecular target: T1, CYP1A2 (Homo sapiens, UniProt P05177); assay: Inhibition of CYP1A2 in human liver microsome at 10 uM using phenacetin as substrate incubated for 10 mins in presence of NADPH cofactor and fluconazole by LC-MS/MS analysis; type: ADME; conditions: liver microsomes, probe phenacetin
T1 sequence (P05177 whole entry): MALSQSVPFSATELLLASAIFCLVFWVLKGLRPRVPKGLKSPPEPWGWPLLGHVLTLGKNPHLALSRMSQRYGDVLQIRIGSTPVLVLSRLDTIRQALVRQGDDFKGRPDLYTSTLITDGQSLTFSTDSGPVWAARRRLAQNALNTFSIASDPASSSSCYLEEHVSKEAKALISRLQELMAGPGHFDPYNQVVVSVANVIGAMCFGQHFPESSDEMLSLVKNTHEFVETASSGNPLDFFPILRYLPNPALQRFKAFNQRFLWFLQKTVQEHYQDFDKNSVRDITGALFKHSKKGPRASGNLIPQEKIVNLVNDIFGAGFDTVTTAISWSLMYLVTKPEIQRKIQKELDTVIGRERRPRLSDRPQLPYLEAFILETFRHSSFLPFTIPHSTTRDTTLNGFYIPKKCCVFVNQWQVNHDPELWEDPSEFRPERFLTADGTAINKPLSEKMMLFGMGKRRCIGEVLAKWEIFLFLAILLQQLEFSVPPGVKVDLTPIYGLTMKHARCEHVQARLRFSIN

[9] = system: Candida albicans; assay: Reversal of fluconazole mediated azole resistance Candida albicans 904 assessed as downregulation of CDR2 at 32 ug/ml in presence of fluconazole by RT-PCR; type: functional, organism-based; conditions: dose 32.0 µg/ml
[10] = MRT (0 to infinity) in Sprague-Dawley rat at 10 mg/kg, iv measured upto 24 hrs by LC/MS/MS analysis; type: ADME, organism-based; conditions: in vivo
[11] = system: Rattus norvegicus; assay: In vivo antifungal activity against azole resistant Candida albicans 904 infected in rat assessed as aggregation of inflammatory leukocytes at 10 mg/kg, ip administered for 5 days, qd by PAS and HE staining based microscopy; type: functional, organism-based; conditions: time 5.0 day
[12] = Stability in rat plasma assessed as half life at 120 mins by LC-MS/MS analysis; type: ADME, cell-free

## CNC(=O)c1noc(-c2cc(-c3ccc(C)cc3)c(O)cc2O)c1-c1ccc(CN2CCOCC2)cc1
[1]
  Kd: > 25 µM

## CCNC(=O)c1noc(-c2cc(-c3ccc(C)cc3)c(O)cc2O)c1-c1ccc(CN2CCOCC2)cc1
[2]
  inhibition at 10 min, 10 µM: 56.1%
[3]
  AUC(0-t) at 24 h: 3010 ng·h/mL
[4]
  Cmax: 3440 ng/mL
[5]
  CLint: 81.6 mL/min/kg
[6]
  inhibition at 10 min, 10 µM: 36.4%
[7]
  half-life: 0.51 h
[8]
  inhibition at 10 min, 10 µM: 17.8%
[9]
  Activity: Active
[10]
  MRT inf: 1.12 h
[11]
  Activity: Active
[12]
  half-life: > 4.8 h
